# Legend:
# Type in all cases: in vivo
# [1] = system: human osteosarcoma cell line (HOS); assay: Tumor growth inhibitory activity against human osteosarcoma cell line (HOS) subcutaneous transplantation models; conditions: HOS s.c. xenograft in NOD SCID mice, lenvatinib mesylate 3 mg/kg p.o. Day 1-7, ifosfamide 250 mg/kg i.p. Day 1, etoposide 8 mg/kg i.p. Day 2-4, control group 468.6
# Description: Tumor growth inhibitory activity of the combined use of lenvatinib, ifosfamide, and etoposide against human osteosarcoma cell line (HOS) subcutaneous transplantation models
# Using 6 NOD SOD mice (NOD.CB17-Prkdc^scid/J, female mice, Charles River Laboratories Japan, Inc.) in each group, antitumor effects were evaluated when lenvatinib alone, a combination of two agents, i.e., ifosfamide and etoposide, or a combination of three agents, i.e., lenvatinib, ifosfamide, and etoposide, was administered. Cells of osteosarcoma cell line HOS (Human Science Research Resources Bank, IFO50106) derived from human were suspended at a concentration of 1×10^8 cells/mL, and 0.1 mL of the suspension was subcutaneously transplanted to the right of each mouse.
# The longest diameter and short axis of the tumor were measured with an electronic digital caliper (Digimatic (tread mark) Caliper, Mitutoyo Corporation) 18 days after transplantation. The mice were divided into groups so that the average value of the tumor volume of each group was almost equal (Day 1). The tumor volume was calculated according to the following equation: Tumor volume=longest diameter(mm)×short axis(mm)×short axis(mm)/2
# Lenvatinib mesylate was dissolved in purified water to a concentration of 0.3 mg/mL. […]
# (§1) The tumor volume of each mouse was measured 8 days (Day 8) after the start of administration.
# [2] = system: human osteosarcoma cell line (G-292 clone A141B1); assay: Tumor growth inhibitory activity against human osteosarcoma cell line (G-292 clone A141B1) subcutaneous transplantation models; conditions: G-292 clone A141B1 s.c. xenograft in NOD SCID mice, lenvatinib mesylate 3 mg/kg p.o. Day 1-7, ifosfamide 250 mg/kg i.p. Day 1, etoposide 8 mg/kg i.p. Day 2-4, control group 362.5
# Description: Using 6 NOD SCID mice (NOD.CB17-Prkdc^scid/J, female mice, Charles River Laboratories Japan, Inc.) in each group, antitumor effects were evaluated when lenvatinib alone, a combination of two agents, i.e., ifosfamide and etoposide, or a combination of three agents, i.e., lenvatinib, ifosfamide, and etoposide, was administered. Cells of osteosarcoma cell line G-292 clone A141B1 (JCRB Cell Bank, IFO50107) derived from human were suspended at a concentration of 1×10^8 cells/mL, and 0.1 mL of the suspension was subcutaneously transplanted to the right flank of each mouse.
# The longest diameter and short axis of the tumor were measured with an electronic digital caliper (Digimatic (tread mark) Caliper, Mitutoyo Corporation) 29 days after transplantation. The mice were divided into groups so that the average value of the tumor volume of each group was almost equal (Day 1). The tumor volume was calculated according to the following equation: Tumor volume=longest diameter(mm)×short axis(mm)×short axis(mm)/2
# Lenvatinib mesylate was dissolved in purified water to a concentration of 0.3 mg/mL. lfosfamide (Sigma Aldrich) was dissolved in a physiological saline solution to a concentration of 25 mg/mL. […]
# as §1
# [3] = system: human osteosarcoma cell line (143B); assay: Tumor growth inhibitory activity against human osteosarcoma cell line (143B) subcutaneous transplantation models; conditions: 143B s.c. xenograft in NOD SCID mice, lenvatinib mesylate 3 mg/kg p.o. Day 1-7, ifosfamide 250 mg/kg i.p. Day 1, etoposide 8 mg/kg i.p. Day 2-4, control group 785.4
# Description: Using 6 NOD SCID mice (NOD.CB17-Prkdc^scid/J, female mice, Charles River Laboratories Japan, Inc.) in each group, antitumor effects were evaluated when lenvatinib alone, a combination of two agents, i.e., ifosfamide and etoposide, or a combination of three agents, i.e., lenvatinib, ifosfamide, and etoposide, was administered. Cells of osteosarcoma cell line 143B (ATCC CRL-8303) derived from human were suspended at a concentration of 1×10^7 cells/mL, and 0.1 mL of the suspension was subcutaneously transplanted to the right flank of each mouse.
# The longest diameter and short axis of the tumor were measured with an electronic digital caliper (Digimatic (tread mark) Caliper, Mitutoyo Corporation) 9 days after transplantation. The mice were divided into groups so that the average value of the tumor volume of each group was almost equal (Day 1). The tumor volume was calculated according to the following equation: Tumor volume=longest diameter(mm)×short axis(mm)×short axis(mm)/2
# Lenvatinib mesylate was dissolved in purified water to a concentration of 0.3 mg/mL. Ifosfamide (Sigma Aldrich) was dissolved in a physiological saline solution to a concentration of 25 mg/mL. […]
# as §1
structure (smiles),measurement,setting,value
"COc1cc2nccc(Oc3ccc(NC(=O)NC4CC4)c(Cl)c3)c2cc1C(N)=O [Lenvatinib, 4-(3-chloro-4-(cyclopropylaminocarbonyl)aminophenoxy)-7-methoxy-6-quinolinecarboxamide]",Average tumor volume (Day 8),[1],352.2 mm^3
same,Average tumor volume (Day 8),[2],267.9 mm^3
same,Average tumor volume (Day 8),[3],438.6 mm^3
